Results: patent publication US20060183794A1, “Drug composition containing nf-kb inhibitor” (priority 2002, published 2006)

What was measured:
[1] = tested on: ATL cells of ATL patients; assay: MTT assay, ATL cells from peripheral blood of ATL patients; format: cell-based, human; conditions: three cases; 10 μg/ml, 24 hours
Description: Mononuclear cells were isolated from peripheral blood cells of ATL patients and ATL cells were isolated. DHM2EQ was added to the isolated ATL cells of three cases at a final concentration of 10 μg/ml and the cells were incubated for 24 hours. The proliferation-inhibitory effect was examined by the MTT assay. Using the cells to which solvent DMSO had been added in equal volume as controls, the proliferation-inhibitory effect was evaluated by the ratio of the MMT values of DHM2EQ-treated cells to those of DHM2EQ-untreated cells, i.e., (MTT values of DHM2EQ-treated cells/MTT values of DHM2EQ-untreated cells).

[2] = tested on: cachexia symptoms induced by JCA-1 cells; assay: Cancer cachexia model, JCA-1 tumor-bearing BALB/c nude mice; format: in vivo
Description: To assay the effect of the compounds represented by the general formula (1) or pharmacologically acceptable salts thereof on cachexia, cachexia-induced BALB/c nude mice were used as model mice of human patients with cachexia. Here, cachexia symptoms were induced using the androgen-insensitive human prostatic cancer cell-line JCA-1.
To measure the effect of DHMEQ on cachexia symptoms, the cachexia model mice were prepared using the aforementioned nude mice. JCA-1 cells (1×10^7 cells) suspended in 100 μl of PBS were inoculated subcutaneously into the flank of six-old-week nude mice (hereafter called tumor-bearing mice). Fourteen days after the inoculation, when the tumors had reached palpable sizes, the inoculated mice were randomly assigned to three groups: group 2 (Gr2; n=13), given DHMEQ (8 mg/kg bw) every day; group 3 (Gr3; n=13), given DMSO every day; and group 4 (Gr4; n=11), given nothing. Group 1 (Gr1; n=14), consisting of normal nude mice not inoculated with JCA-1 cells (hereinafter called “normal mice”), was also included. From the next day of administration of DHMEQ, the body weights (FIG. 20) and the tumor weights (FIG. 21) calculated from the tumor diameters were measured every other day. On day 26 after the start of administration of DHMEQ, all mice were dissected and the tumor weights (FIG. 22), the weights of fat around the testis (FIG. 23) the gastrocnemius weights (FIG. 24), and the hematocrits (FIG. 25; the ratio of the volume of blood cell components to that of whole blood, which can be measured by blood centrifugation) were measured. The measured values were summed up for every group.

NF-κB [3] = molecular target: T1, NF-κB (Homo sapiens, UniProt P19838+Q04206); assay: 6 kB-Luc reporter assay of NF-κB transcription in multiple myeloma cell lines; format: cell-based; parameters: endogenous in cells; host or cells: MM cell lines KMM1, RPMI8226, U266; conditions: 5 μg/ml, 12-hour treatment; compared with non-treated cells
T1 sequence (Q04206 whole entry): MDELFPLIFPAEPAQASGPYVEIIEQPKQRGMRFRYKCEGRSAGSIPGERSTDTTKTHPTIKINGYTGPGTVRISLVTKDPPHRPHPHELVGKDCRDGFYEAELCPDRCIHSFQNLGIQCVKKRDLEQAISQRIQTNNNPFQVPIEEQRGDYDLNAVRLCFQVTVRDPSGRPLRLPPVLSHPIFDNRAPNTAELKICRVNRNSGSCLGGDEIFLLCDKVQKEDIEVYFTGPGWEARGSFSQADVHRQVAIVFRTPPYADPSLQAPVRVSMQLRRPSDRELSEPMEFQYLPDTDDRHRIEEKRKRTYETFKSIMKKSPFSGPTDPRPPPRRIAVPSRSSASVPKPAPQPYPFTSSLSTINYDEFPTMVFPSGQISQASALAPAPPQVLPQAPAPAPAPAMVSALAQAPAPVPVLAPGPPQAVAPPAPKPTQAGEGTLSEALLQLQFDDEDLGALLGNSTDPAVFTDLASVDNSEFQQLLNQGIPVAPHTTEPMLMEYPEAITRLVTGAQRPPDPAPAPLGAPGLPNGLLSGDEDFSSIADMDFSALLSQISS
T1 sequence (P19838 1-433 limits assumed): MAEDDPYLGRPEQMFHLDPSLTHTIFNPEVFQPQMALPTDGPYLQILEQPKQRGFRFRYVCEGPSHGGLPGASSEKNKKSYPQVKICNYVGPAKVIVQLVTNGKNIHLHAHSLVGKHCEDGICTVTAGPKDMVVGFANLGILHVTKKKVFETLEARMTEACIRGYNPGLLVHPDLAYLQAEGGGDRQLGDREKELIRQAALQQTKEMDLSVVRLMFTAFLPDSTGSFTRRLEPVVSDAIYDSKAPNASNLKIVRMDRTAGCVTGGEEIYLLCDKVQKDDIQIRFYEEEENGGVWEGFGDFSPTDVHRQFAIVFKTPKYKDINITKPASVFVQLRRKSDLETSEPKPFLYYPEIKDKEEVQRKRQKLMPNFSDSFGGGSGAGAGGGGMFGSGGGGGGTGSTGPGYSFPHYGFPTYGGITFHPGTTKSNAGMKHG
Description: Next, the inhibitory effect on activation of NF-κB was investigated using the reporter assay. First, 6 kB-Luc plasmid was introduced by transfection into the MM cell lines, KMM1, RPMI8226, and U266 (transfected on a scale of a 2×10^5 cells/transfection using DMRIE-C (Invitrogen)) After 12 hours, 12-hour treatment of cells with 5 μg/ml DHM2EQ was started and the suppressive effect of DHMEQ on the transcription by NF-κB was examined. […] The suppressive effect of DHMEQ on transcription by NF-κB was therefore indicated.

[4] = tested on: cells of multiple myeloma (MM) patients; assay: Hoechst staining apoptosis assay, cells of multiple myeloma patients; format: cell-based, human; conditions: 10 μg/ml, 72 hours
Description: Further, to investigate apoptosis induction of cells of multiple myeloma (MM) patients by DHMEQ, cells of multiple myeloma (MM) patients were incubated for 72 hours at a concentration of 10 μg/ml and the apoptosis was examined by observing nuclear condensation or fragmentation with a fluorescence microscope, using Hoechst staining.

NF-κB [5] = molecular target: T1, NF-κB; assay: Gel shift assay of constitutive NF-κB activation in multiple myeloma cell lines; format: cell-based; parameters: endogenous in cells; host or cells: MM cell lines KMM1, RPMI8226, U266
Description: The ATL cell lines (MT-1 and TL-Om1) and the control cell lines (K562 and Jurkat+TNF), 2×10^6 cells each, were treated with 10 μg/ml DHM2EQ for 12 hours, and nuclear extract was prepared from each cell line. Likewise, nuclear extract was prepared also from the cell lines not treated with DHM2EQ. MT-1 and TL-Om1 are the cell lines transformed with HTLV-1; NF-κB is activated in these cell lines. K562 (myelocytic leukemia cell line) is a cell line in which constitutive NF-κB is not confirmed (a negative control), and Jurkat+TNF is a […] consensus oligomers (Promega) were end-labeled with [γ-^32P]-ATP and polynucleotide kinase (PNK) to prepare ^32P-labeled NF-κB probes.
The equivalent of 2 μg of nuclear extract protein was mixed with NF-κB probes (the equivalent of 10,000 cpm) in a volume of 20 μl and reacted at room temperature for 30 min. The solution after the reaction was subjected to 7.5% polyacrylamide gel electrophoresis. The gel was then dried and exposed to an X-ray film.
The MM cell lines, KMM1, RPMI8226, and U266 (2×10^6 cells each) were treated with 10 μg/ml of DHMEQ for 12 hours, and nuclear extract was prepared from each cell line. The gel shift assay was performed in the same method as in Example 4 and the inhibitory effect of DHMEQ on NF-κB was examined. […] The TNF-treated Jurkat (Jurkat+TNF) was used as the positive control.
Next, the MM cell lines, KMM1, RPMI8226, and U266 were treated with 10 μg/ml DHMEQ for 12 hours, and nuclear extract was prepared from each cell line. The gel shift assay was performed in the same method as in Example 4 (1) and the time-course inhibitory effect on NF-κB was examined.

[6] = tested on: multiple myeloma cell line 196TIB; assay: MTT assay, proliferation of multiple myeloma cell line 196TIB; format: cell-based
Description: Cells from the ATL cell lines (MT-1 and TL-Om1) and a control cell line (K562) were plated in 96-well plates at 1×10^5 cells/well and DHM2EQ was added at the desired final concentrations (2, 5, and 10 μg/ml). Cells to which the solvent DMSO had been added in equal volume (0 μg/ml) were used as […] incubation for 72 hours, cell viability was judged by the MTT assay. Relative MTT values were obtained as the ratio of the MMT values of DHM2EQ-treated cells to those of DHM2EQ-untreated cells, i.e., (MTT values of DHM2EQ-treated cells/MTT values of DHM2EQ-untreated cells)×100(%).
Concentration dependence analysis of the inhibitory effect of DHM2EQ on proliferation of multiple myeloma cells was performed in the same manner as in Example 2. As multiple myeloma cells, the multiple myeloma cell line 196TIB was used.

[7] = 8 mg/kg bw every day, day 26, Gr2 vs Gr3 and Gr4

O=C(NC1=CC(=O)C2OC2C1O)c1ccccc1O (stereo not shown) [DHMEQ, 5,6-epoxy-4-hydroxy-3-salicyloylamino-2-cyclohexenone] was tested, and the “proliferation of ATL cells obtained from patients (MTT)” value [1] was “exhibits an inhibitory effect”, the body weight reduction ([2]; 8 mg/kg bw every day (Gr2) vs Gr3 and Gr4) was “significantly suppressed” and the “influence on internal organ weights” value ([2]; 8 mg/kg bw every day, day 26) was “No unfavorable influence”. For the same compound, the “regressive effect on tumors (tumor weight)” value ([2]; 8 mg/kg bw every day, day 26) was “no regressive effect”, the gastrocnemius weight [2, 7] was “weight reduction was significantly suppressed” and the hematocrit [2, 7] was “significant tendency of recovery”. The “weight of fat around the testis” value [2, 7] was “weight reduction was significantly suppressed”, the “transcription by NF-κB suppressed by (reporter assay)” value (NF-κB [3]) was “about 50%” and the “apoptosis (Hoechst staining)” value [4] was “induces apoptosis”. The “signals by NF-κB (gel shift)” value (NF-κB [5]; KMM1, RPMI8226, U266, 10 μg/ml DHMEQ, 12 hours) was “lost”, the “persistence of inhibition of NF-κB activation” value (NF-κB [5]; MM cell lines, 10 μg/ml) was “sustained even after a lapse of 16 hours” and the “activation of NF-κB, time course (gel shift)” value (NF-κB [5]; MM cell lines, 10 μg/ml, 1 hour after treatment) was “almost inhibited”. The “cell proliferation, concentration dependence” value [6] was “inhibited in proportion to the DHM2EQ concentrations added”.
